{"source": "patent US20080275018A1", "about": "“ANTIBACTERIAL AMIDE-MACROCYCLES V” (AiCuris GmbH & Co. KG, priority 2005, published 2008)", "key": {"S. aureus T17": {"tested_on": "S. aureus T17", "experiment": "Minimum inhibitory concentration (MIC), biphenomycin-resistant S. aureus T17", "assay_type": "cell-based, Staphylococcus aureus", "description": "(§1) The minimum inhibitory concentration (MIC) is the minimum concentration of an antibiotic with which the growth of a test microbe is inhibited over 18-24 h. The inhibitor concentration can in these cases be determined by standard microbiological methods (see, for example, The National Committee for Clinical Laboratory Standards. Methods for dilution antimicrobial susceptibility tests for bacteria that grow aerobically; approved standard-fifth edition. NCCLS document M7-A5 [ISBN 1-56238-394-9]. NCCLS, 940 West Valley Road, Suite 1400, Wayne, Pa. 19087-1898 USA, 2000). The test substances are thereby initially provided in 1:2 dilution series into 96-well round-bottom microtiter plates (Greiner) double-concentrated in 50 μl of test medium. The aerobically growing test microbes (e.g. staphylococci and enterococci), which are incubated overnight on Columbia blood agar plates (Becton-Dickinson), are, after resuspension in 0.9% NaCl, adjusted to a microbe count of about 5×10^7 microbes/ml and then diluted 1:150 in cation-adjusted MH medium (test medium). 50 μL of this suspension are pipetted onto the test preparations provided in the microtiter plates. The cultures are incubated at 37° C. for 18-24 hours. For microaerophilically growing microbes (e.g. streptococci), 2% lysed horse blood in the final concentration is added to the medium and the cultures are incubated in the presence of 5% CO2. The lowest substance concentration in each case at which no visible bacterial growth occurs any longer is defined as the MIC and is reported in μg/ml.\n(§2) The minimum inhibitory concentration (MIC) is the minimum concentration of an antibiotic with which the growth of a test microbe is inhibited over 18-24 h. The inhibitor concentration can in these cases be determined by standard microbiological methods (see, for example, The National Committee for Clinical Laboratory Standards. Methods for dilution antimicrobial susceptibility tests for bacteria that grow aerobically; approved standard-fifth edition. NCCLS document M7-A5 [ISBN 1-56238-394-9]. NCCLS, 940 West Valley Road, Suite 1400, Wayne, Pa. 19087-1898 USA, 2000). The MIC of the compounds of the invention is determined in the liquid dilution test on the 96-well microtiter plate scale. The bacterial microbes are cultivated in a minimal medium (18.5 mM Na2HPO4, 5.7 mM KH2PO4, 9.3 mM NH4Cl, 2.8 mM MgSO4, 17.1 mM NaCl, 0.033 μg/ml thiamine hydrochloride, 1.2 μg/ml nicotinic acid, 0.003 μg/ml biotin, 1% glucose, 25 μg/ml of each proteinogenic amino acid with the exception of phenylalanine; [H.-P. Kroll; unpublished]) with the addition of 0.4% BH broth (test medium). In the case of Enterococcus faecium L4001, heat-inactivated fetal calf serum (FCS; GibcoBRL, Germany) is added to the test medium in a final concentration of 10%. Overnight cultures of the test microbes are diluted to an OD578 of 0.001 (to 0.01 in the case of enterococci) in fresh test medium, and incubated 1:1 with dilutions of the test substances (1:2 dilution steps) in test medium ([…]). The cultures are incubated at 37° C. for 18-24 hours; enterococci in the presence of 5% CO2.\n(§3) The lowest substance concentration in each case at which no visible bacterial growth occurs any longer is defined as the MIC.\n(§4) The minimum inhibitory concentration (MIC) is the minimum concentration of an antibiotic with which the growth of a test microbe is inhibited over 18-24 h. The inhibitor concentration can in these cases be determined by standard microbiological methods with modified medium in an agar dilution test (see, for example, The National Committee for Clinical Laboratory Standards. Methods for dilution antimicrobial susceptibility tests for bacteria that grow aerobically; approved standard-fifth edition. NCCLS document M7-A5 [ISBN 1-56238-394-9]. NCCLS, 940 West Valley Road, Suite 1400, Wayne, Pa. 19087-1898 USA, 2000). The bacterial microbes are cultivated on 1.5% agar plates which contain 20% defibrinated horse blood. […]"}, "S. aureus 133": {"tested_on": "S. aureus 133", "experiment": "Minimum inhibitory concentration (MIC), S. aureus 133", "assay_type": "cell-based, Staphylococcus aureus", "conditions": "S. aureus 133", "description": "as §1, §2, §3, §4"}, "E. faecium L4001": {"tested_on": "E. faecium L4001", "experiment": "Minimum inhibitory concentration (MIC), E. faecium L4001", "assay_type": "cell-based, Enterococcus faecium", "conditions": "E. faecium L4001; 10% FCS in test medium", "description": "as §2, §3"}}, "data": [{"smiles": "NC[C@H](O)C[C@@H]1NC(=O)[C@@H](N)Cc2cc(ccc2O)-c2ccc(O)c(c2)C[C@@H](C(=O)O)NC1=O", "note": "[Biphenomycin B, biphenomycin B, reference compound]", "values": [{"measurement": "MIC S. aureus T17", "setting": "S. aureus T17; biphenomycin-resistant S. aureus T17", "value": ">32", "unit": "μ/ml"}, {"measurement": "MIC of selected colony (strain T17)", "setting": "S. aureus T17; colony isolated from kidney of mice treated with biphenomycin B", "value": "> 50", "unit": "µM"}, {"measurement": "MIC S. aureus 133", "setting": "S. aureus 133", "value": "<0.03", "unit": "μ/ml"}, {"measurement": "MIC E. faecium L4001", "setting": "E. faecium L4001", "value": 0.5, "unit": "μ/ml"}]}]}
